Each structure is given as a SMILES string. Several values for one entry are separate records, joined by “and”; a condition that tells them apart may be missing. Identical values can stand only once. Like-named read-outs stand apart in the source and are kept apart here.

This is an account of results in US8110681B2, “Compounds for the treatment of spinal muscular atrophy and other uses” (The United States of America as represented by the …, priority 2006, dated 2012).

For data set [1], the system named is SMN-containing gems in fibroblast cells from a type 1 SMA patient (3813 cells). Kind of data set: Gem count by immunohistochemistry in type 1 SMA patient fibroblasts (3813 cells). In kind it is cell-based, human. The following applies: for Number of gems per 100 nuclei, Treated Cells: 48 hours. From the text: SMN protein can be found in punctate nuclear particles called “gems” (Liu and Dreyfuss, EMBO J. 15(14): 3555-3565 (1996)). In fibroblast cells derived from SMA patients, the number of gems corresponds to disease severity as follows: severe type 1 patients have approximately 5 gems per 100 nuclei; mild type 3 patients have 20-50 gems per 100 nuclei; normal individuals have approximately 100-150 gems per 100 nuclei (Coovert et al., Hum Mol Genet 6(8): 1205-1214 (1997), Young et al., Exp Cell Res 265(2): 252-261 (2001)).
Following these methods, fibroblast cells from a type 1 SMA patient (3813 cells, Coriell Cell Repositories) were treated for 48 hours with the compounds indicated in Table 2 (reference number—structure correlation is provided in Table 1). The cells were then fixed and incubated with a monoclonal antibody against SMN (4B7, Wolstencroft et al., Hum Mol Genet 14:1199-1210 (2005)). A FITC-conjugated anti-mouse secondary antibody was used to visualize the labeled gems.

Data set [2] has as its system SMN. Kind of data set: Western blot of SMN in SMA type I fibroblasts (3813 cells). Conditions: 48 hours, DMSO = 1. It counts as cell-based, human. How it is done:
Westerns blots were performed using the methods of Mattis et al., Hum Genet 120:589-601(2006)). SMA type I fibroblasts (3813 cells; Coriell Cell Repositories) were treated with compounds for 48 hours. Monoclonal anti-SMN antibody 4B7 (Wolstencroft et al., Hum Mol Genet 14:1199-1210 (2005)) was used to identify SMN. Actin was used as an internal normalization standard and detected with an anti-actin polyclonal rabbit antibody (Sigma-Aldrich). Tobramycin was used for the positive control compound treatment. DMSO is the untreated negative control. Values are presented as the ratio of the signals obtained for SMN and Actin.

Data set [3] has as its system SMN2-linked luciferase-reporter gene construct. Kind of data set: SMN splice reporter assay (SMN2-linked luciferase reporter, Example 10). The following applies: for maximal fold induction: read-out: SMN Splice Reporter Assay (Example 10) Avg MaxFold Increase. It counts as cell-based. In outline:
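Values are fold-increase in luciferase signal relative to baseline cells without compound. The cervical carcinoma line used holds a fusion of alternatively spliced SMN2 sequence and luciferase. Readable frame, and thus signal, arises only with exon 7-including splicing.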

The subject of data set [4] is luciferase reporter containing the UAG stop codon. Kind of data set: Translational read-through luciferase reporter assay, UAG stop codon. In kind it is cell-based. The following applies: read-out: MaxFold Increase. From the text:
This assay is described in detail in WO 01/44516 A2. This is a cell-based luciferase reporter assay designed to detect translational read-through via insertion of a translational stop codon within the luciferase coding sequence. In the presence of compounds that promote read-through of translational stop codons, active luciferase is produced and detected via chemiluminescence. We have shown that indoprofen analogs are active in two versions of this assay—one containing a UGA stop codon and one containing a UAG stop codon. The data in the table is from the luciferase reporter containing the UAG stop codon. This is the first stop codon downstream of the improper splice junction between exons 6 and 8 in the human SMN2 transcript.

Data set [5] relates to human GLT-1/EAAT-2 promoter. Kind of data set: GLT-1/EAAT-2 promoter luciferase reporter assay in COS-7 cells. In kind it is cell-based. Conditions: Homo sapiens; COS-7 pE2P-GL3 (clone 4), 48 h, normalized to DMSO control; read-out: Max Fold-Induction. How it is done:
The astroglial glutamate transporter, GLT-1/EAAT-2, is responsible for the majority of glutamate transport in the brain and spinal cord. […] Results from each plate were normalized to the DMSO treated control wells and expressed as fold-induction. EC50 values were calculated using GraphPad Prism software.

A short description of data set [6]: Plasma and brain pharmacokinetics in mice. It counts as in vivo, FVB or CD-1 mice. The following applies: 5 mg/kg, oral, single dose; for Kp / half-life / AUC: mouse; for Kp: brain and plasma, read-out: Brain/Plasma Ratio. How it is done: Compounds were formulated in solution using the method of cosolvency as described by Lee et al., Int. J. Pharmaceutics, 253: 111-119 (2003). FVB or CD-1 mice, approximately 5 weeks old, were given a single dose of compound at the indicated concentration. Compounds were administered orally, with the exception of ALB-116638 and ALB-117573, which were administered IV. Three to five mice were euthanized at various times between 15 minutes and 24 hours after dosing and brain and plasma were harvested. Tissues were homogenized in acetonitrile and analyzed on an API 4000 LC/MS/MS system coupled with an Agilent 1100 series liquid chromatograph. All pharmacokinetic analyses were conducted using WinNonlin (Version 4.01; Pharsight, Palo Alto, Calif.) with the exception of brain/plasma ratios, which were calculated using Microsoft Excel 2000. AUC values are the area under the concentration-time curve from time zero to the last measured time point. The half life values are extrapolated from 3-4 time points taken at less than 4 hours after dosing.

In data set [7] the test system is SMN protein. The following applies: cited from earlier work.
The subject of data set [8] is SMA model mouse fetuses. The following applies: administered in utero; cited from earlier work.
Setting [9] is: SMN2-linked luciferase reporter, average.
Setting [10] is: maximum fold increase of reporter signal, average.
Where [11] appears, read: brain, read-out: Brain T½ (converted).
Setting [12] is: plasma, read-out: Plasma T½ (converted).

With `CCCC(CCC)C(=O)O` [Positive Control, valproic acid, reference compound], the “Number of gems per 100 nuclei, Positive Control” value in data set [1] (1000 μM valproic acid, same patient fibroblasts) is 31 gems per 100 nuclei and 38.7 gems per 100 nuclei.
The compound `CC(C)c1ccc(N2Cc3ccc([N+](=O)[O-])cc3C2=O)cc1` [Example 6, 2-(4-isopropylphenyl)-6-nitroisoindolin-1-one] yielded a melting point of 225 to 227 °C.
Compound `COCC(C)c1ccc(N2Cc3ccc(OC)cc3C2=O)cc1` (stereo not shown) [Example 4, 6-methoxy-2-(4-(1-methoxypropan-2-yl)phenyl)isoindolin-1-one] had a melting point of 116 to 118 °C.
On the same count and under the same terms, in the case of `CCCc1ccc2c(c1)C(=O)N(c1ccc(C(C)C(=O)O)cc1)C2` (stereo not shown) [Example 2, 2-(4-(1-oxo-6-propylisoindolin-2-yl)phenyl)propanoic acid] it was 175 to 177 °C.
On to `NC[C@H]1O[C@H](O[C@H]2[C@H](O)[C@@H](O[C@H]3O[C@H](CO)[C@@H](O)[C@H](N)[C@H]3O)[C@H](N)C[C@@H]2N)[C@H](N)C[C@@H]1O` [Tobramycin, reference compound], for which the “SMN:Actin Ratio” value in data set [2] (320 uM, positive control) is 1.5.
For `COc1ccc2c(c1)C(=O)N(c1ccc(C(C)C)cc1)C2` [ALB-115069], in [1] (1 μM), the “Number of gems per 100 nuclei, Treated Cells” value was 45.25 gems per 100 nuclei. The compound further showed a concentration for a half-maximal effect (EC50) in [3] (setting [9]) of 0.081 µM. In data set [3] (setting [10]), the maximal fold induction was found to be 1.5. Further, the “SMN:Actin Ratio” value in [2] (0.1 uM) is recorded as 4.3; in data set [2] (1 uM), 5.7.
For `CC(C)c1ccc(N2Cc3ccc(OC(F)F)cc3C2=O)cc1` [ALB-116244], the “Number of gems per 100 nuclei, Treated Cells” value in data set [1] (0.1 μM) worked out at 44 gems per 100 nuclei. Also, the maximal fold induction is 2.8 in data set [4] and 1.57 in [3] (SMN2-linked luciferase reporter, average maximum fold increase). Further, the EC50 in data set [3] (setting [9]) came out at 0.599 µM.
For the compound `CC(C)c1ccc(N2Cc3ccc(N(C)C)cc3C2=O)cc1` [ALB-115806], in [1] (0.4 μM), the “Number of gems per 100 nuclei, Treated Cells” value stood at 8 gems per 100 nuclei. Also, the maximal fold induction in [4] turned out to be 2; in data set [3] (setting [10]), 1.47; in data set [5], 0.87. Further, the EC50 in data set [3] (setting [9]) was found to be 0.041 µM.
With `CC(C)c1ccc(N2Cc3cc4c(cc3C2=O)OCCO4)cc1` [ALB-115498], the “Brain AUC” value in data set [6] amounted to 163.8 ng·h/g. In data set [6], the Kp amounted to 3.43. Also, the values for the half-life in data set [6] (setting [11]) and in data set [6] (setting [12]) were 0.5 h and 0.6 h, respectively. In data set [6] (plasma), this compound gave an AUC of 47.8 ng·h/mL. Moreover, the “Number of gems per 100 nuclei, Treated Cells” value in data set [1] (1 μM) amounted to 14.3 gems per 100 nuclei. Moreover, the midpoint of the response in data set [3] (setting [9]), the EC50, lay at 0.203 µM. Besides, the maximal fold induction in data set [3] (setting [10]) was determined as 1.83; in data set [5] it was 0.86.
`CC(C)c1ccc(N2Cc3ccc(Cl)cc3C2=O)cc1` [Example 5, 6-chloro-2-(4-isopropylphenyl)isoindolin-1-one]: the melting point was 206 to 209 °C.
As for `COc1ccc2c(c1)C(=O)N(c1ccc(C(C)C(=O)O)cc1)C2` (stereo not shown) [ALB-112355], the “Brain AUC” value in data set [6] was found to be 570.0 ng·h/g. Besides, the Kp in data set [6] amounted to 0.03. Moreover, the half-life is 2.6 h in data set [6] (setting [11]) and 7.6 h in [6] (setting [12]). In data set [6] (plasma), the AUC turned out to be 21100 ng·h/mL. Also, the “Number of gems per 100 nuclei, Treated Cells” value in data set [1] (0.45 μM) came to 5.3 gems per 100 nuclei. Also, the values for the maximal fold induction in data set [4] and in data set [3] (setting [10]) were 2.7 and 1.85, respectively. For the same compound, the EC50 in data set [3] (setting [9]) amounted to 0.083 µM.
Take `CCCc1ccc2c(c1)C(=O)N(c1ccc(C(C)C(=O)O)cc1)C2` (stereo not shown) [ALB-113310]: the “Number of gems per 100 nuclei, Treated Cells” value in data set [1] (3 μM) turned out to be 53.5 gems per 100 nuclei. Also, the maximal fold induction was 3.7 in [4] and 2.1 in data set [3] (setting [10]). Further, it took 0.049 µM to reach a half-maximal effect in [3] (setting [9]) (EC50). The entries for the “SMN:Actin Ratio” value in data set [2] (0.1 uM) and in [2] (1 uM) were 4.8 and 6.2, respectively.
`CC(C(=O)O)c1ccc(N2Cc3ccccc3C2=O)cc1` (stereo not shown) [Indoprofen]: the “production of SMN from the endogenous SMN2 gene” value in data set [7] (SMA patient fibroblasts) is “increase in production of SMN”. Moreover, the “level of expression of SMN protein” value in [7] (cultured cells, Lunn et al. 2004) is given as “increases the level of expression of SMN protein”. For the same compound, the “survival of SMA model mouse fetuses” value in data set [8] was “increase survival”. The maximal fold induction in [4] was 2.3. The “luciferase activity in SMN splice reporter assay” value in [3] (cervical carcinoma cell lines with SMN2-luciferase reporter) is reported as “increases luciferase activity”.
